Experimental data reported in patent US20130225641A1, “ANTICANCER COMPOUNDS AND PREPARATION METHODS THEREOF” (priority 2010, published 2013).
pIC50: −log10 of the molar value.

Experiments:
SGC-7901 = test: MTT cytotoxicity, SGC-7901; format: cell-based; settings: Homo sapiens, SGC-7901, Gastric, 72 hrs, read-out: LC50 (the source's name)
Procedure: (§1) The cytotoxicity of ZTP and ZTQ was analyzed by using human tumor cell lines. Human tumor cell lines were purchased from ATCC and NCI, and cultured in DMEM medium containing 10% FBS at 37° C. in 5% CO2 in an incubator. The cells grown to confluence were used for cytotoxicity analysis. The cells were digested with trypsin, washed with the culture medium, and then counted. 33 tumor cell lines were cultured. The cells were seeded at a density of 3000-6000 cells/well in a 96-well plate and incubated for 16-24 hrs. Then, various concentrations of ZTP or ZTQ dissolved in DMSO were added, and cultured for 72 hrs. The drug-treated cells and control cells were analyzed by MTT.

CCL-247 = test: MTT cytotoxicity, CCL-247; format: cell-based; settings: Homo sapiens, CCL-247, Colonic, 72 hrs, read-out: LC50 (the source's name)
Procedure: as §1

SKOV3 = test: MTT cytotoxicity, SKOV3; format: cell-based; settings: Homo sapiens, SK-OV-3, SKOV3, Ovarian, 72 hrs, read-out: LC50 (the source's name)
Procedure: as §1

VEGFR protein kinase = test: Inhibition of VEGFR protein kinase activity (phosphorylated VEGFR, western blotting) in HUMEC cells; format: cell-based, human; settings: 1 hour treatment, phosphorylated VEGFR level, read-out: median inhibitory concentration (IC50) for inhibiting the activity of VEGFR protein kinase
From the text: VEGFR is a vascular endothelial growth factor receptor regulating the growth, migration, and differentiation of vascular endothelial cells, and determining the start of angiogenesis of tumors. After being stimulated by vascular endothelial cell growth factors, VEGFR forms a dimer, activates its kinase, and makes themselves phosphorylated. The level of the activity of VEGFR protein kinase is detected according to the phosphorylated degree of VEGFR. In this test, we used human microvascular endothelial cells (HUMECs) to determine whether ZTP and ZTQ can inhibit the activity of VEGFR protein kinase. HUMEC cells were subjected to adherent growth in DMEM medium (GIBCO-BRL) containing 10% bovine calf serum at 37° C. in 5% CO2. The cells were treated with various concentrations of ZTP and ZTQ (0, 10 ng/ml, 100 ng/ml, 500 ng/ml, 1 μg/ml, and 10 μg/ml), and the cell proteins were collected 1 hour after treatment. The protein content was determined through Bradford method, and then the level of phosphorylated VEGFR was assayed through western blotting. Immunoblotting experiment: denatured polyacrylamide gel was used for separation of the proteins with a sample load of 60 μg of total proteins. The proteins were electro-transferred onto a PVDF membrane and blocked. […] The membrane was exposed to an X-ray film, and the results were analyzed by a gel imaging system. […]

[1] = Acute toxicity studies in mice; format: in vivo; settings: for death of test mice: single dose of 500 mg/kg and divided doses of 100 mg/kg
From the text: After tests, the mice were sacrificed for pathological analysis.

HepG3B = test: MTT cytotoxicity, HepG3B; format: cell-based; settings: Homo sapiens, Liver, 72 hrs, read-out: LC50 (the source's name)
Procedure: as §1

BT-549 = test: MTT cytotoxicity, BT-549; format: cell-based; settings: Homo sapiens, BT-549, Breast, 72 hrs, read-out: LC50 (the source's name)
Procedure: as §1

Widr = test: MTT cytotoxicity, Widr; format: cell-based; settings: Homo sapiens, Colonic, 72 hrs, read-out: LC50 (the source's name)
Procedure: as §1

EC109 = test: MTT cytotoxicity, EC109; format: cell-based; settings: Homo sapiens, ECa-109, EC109, Esophageal, 72 hrs, read-out: LC50 (the source's name)
Procedure: as §1

HCT-116 = test: MTT cytotoxicity, HCT-116; format: cell-based; settings: Homo sapiens, HCT-116, Colonic, 72 hrs, read-out: LC50 (the source's name)
Procedure: as §1

MCF-10a = test: MTT cytotoxicity, MCF-10a normal mammary epithelial cell; format: cell-based, human; settings: cells still grow well at a concentration up to 30 μm
Procedure: [Worded in the source for another cell line; this cell line is reported under the same test.] as §1

[2] = as above; format: cell-based, human; settings: human, MCF-10a normal mammary epithelial cells; MCF-10a, Normal mammary epithelial cell; 72 hrs, MTT; read-out: LC50
Procedure: [Worded in the source for another cell line; this cell line is reported under the same test.] as §1

MDA-MB-435 = test: MTT cytotoxicity, MDA-MB-435; format: cell-based; settings: Homo sapiens, MDA-MB-435, Breast, 72 hrs, read-out: LC50 (the source's name)
Procedure: as §1

[3] = divided doses of 100 mg/kg, observed 4 weeks
[4] = single dose of 500 mg/kg, observed 1 week

CNC(=O)c1cc(Sc2ccc(NC(=S)Nc3ccc(Cl)c(C(F)(F)F)c3)cc2)ccn1 [ZTQ, N-[4-chloro-3-(trifluoromethyl)phenyl]-[4-(N-methyl-formamide)(4-pyridylthio)phenyl]-thiourea]
CC50 (SGC-7901): 1030 nM
CC50 (CCL-247): 1700 nM
CC50 (SKOV3): 980 nM
pIC50 (VEGFR protein kinase): 8.05
acute toxicity [1, 3]: no obvious toxicity
death of test mice [1]: no death occurs
acute toxicity [1, 4]: no obvious toxicity
CC50 (HepG3B): 1230 nM
CC50 (BT-549): 890 nM
CC50 (Widr): 810 nM
CC50 (EC109): 1120 nM
CC50 (HCT-116): 760 nM
susceptibility of normal human mammary epithelial cells (MCF-10a) (MCF-10a): insusceptible
CC50 at 72 h [2]: > 30 µM
CC50 (MDA-MB-435): 1120 nM

CNC(=O)c1cc(Oc2ccc(NC(=S)Nc3ccc(Cl)c(C(F)(F)F)c3)cc2)ccn1 [ZTP, N-[4-chloro-3-(trifluoromethyl)phenyl]-[4-(N-methyl-formamide)(4-pyridyloxy)phenyl]-thiourea]
CC50 (SGC-7901): 1310 nM
CC50 (CCL-247): 2410 nM
CC50 (SKOV3): 1190 nM
pIC50 (VEGFR protein kinase): 7.68
acute toxicity [1, 3]: no obvious toxicity
death of test mice [1]: no death occurs
acute toxicity [1, 4]: no obvious toxicity
CC50 (HepG3B): 1710 nM
CC50 (BT-549): 1090 nM
CC50 (Widr): 950 nM
CC50 (EC109): 1480 nM
CC50 (HCT-116): 870 nM
susceptibility of normal human mammary epithelial cells (MCF-10a) (MCF-10a): insusceptible
CC50 at 72 h [2]: > 30 µM
CC50 (MDA-MB-435): 1370 nM
